Source: patent US8415380B2 (Hoffmann-La Roche Inc., priority 2007, dated 2013)

What was measured:
[1] = target: T1, rat mGlu2 receptor (Rattus norvegicus, UniProt P31421); test: [3H]-LY354740 binding on mGlu2 transfected CHO cell membranes; details: 10 nM [3H]-LY354740, mGlu2 transfected CHO cell membranes, room temperature, 1 hour
T1 construct: expressed in transfected cells; membranes prepared
From the text: [^3H]-LY354740 Binding on mGlu2 Transfected CHO Cell Membranes Transfection and Cell Culture
cDNA encoding the rat mGlu2 receptor protein in pBluescript II was subcloned into the eukaryotic expression vector pcDNA I-amp from Invitrogen Ltd (Paisley, UK). This vector construct (pcD1mGR^2) was co-transfected with a psvNeo plasmid encoding the gene for neomycin resistance, into CHO cells by a modified calcium phosphate method described by Chen & Okayama (1988). The cells were maintained in Dulbecco's Modified Eagle medium with reduced L-glutamine (1 mM final concentration), 36 mg/L L-Proline and 10% dialysed foetal calf serum from Gibco-Invitrogen; the medium was supplemented with 500 microM α-methyl-4-carboxyphenylglycine (MCPG). Selection was made in the presence of G-418 (300 ug/ml final concentration). Clones were identified by reverse transcription of 5 μg total RNA, followed by PCR using mGlu2 receptor specific primers 5′-[…]-3′ and 5′-[…]-3′ in 60 mM Tris HCl (pH 10), 15 mM (NH4)2SO4, 2 mM MgCl2, 25 units/ml Taq Polymerase with 30 cycles annealing at 60° C. for 1 min., extention at 72° C. for 30 s, and 1 min. 95° C. denaturation.
Cells, cultured as above, were harvested and washed three times with cold PBS and frozen at −80° C. The pellet was resuspended in cold 20 mM HEPES-NaOH buffer containing 10 mM EDTA (pH 7.4), and homogenised with a polytron (Kinematica, A G, Littau, Switzerland) for 10 s at 10 000 rpm. After centrifugation for 30 min. at 4° C., the pellet was washed once with cold 20 mM HEPES-NaOH buffer containing 0.1 mM EDTA, (pH 7.4). After a second centrifugation for 30 min. at 4° C. the pellet was resuspended in cold 20 mM HEPES-NaOH buffer containing 0.1 mM EDTA, (pH 7.4). Protein content was measured using the Micro BCA method from Pierce-Perbio (Rockford, Ill., USA) using bovine serum albumin as standard.
After thawing, the membranes were resuspended in cold 50 mM Tris-HCl buffer containing 2 mM MgCl2 (pH 7.4) (binding buffer). The final concentration of the membranes in the assays was 25 μg protein/ml. Inhibition experiments were performed with membranes incubated with 10 nM [^3H]-LY354740 at room temperature, for 1 hour, in presence of various concentrations of the compound to be tested. Following the incubations, membranes were filtered onto Whatmann GF/B glass fiber filters or onto GF/B Unifilter plates and washed 5 times with cold binding buffer. Non specific binding was measured in the presence of 10 μM (2S,2′R,3′R)-2-(2′3′-Dicarboxycyclopropyl)glycine (DCG IV from Tocris, Ellisville, Mo. USA). After transfer of the filters into plastic vials containing 10 ml of Ultima-gold scintillation fluid from Perkin-Elmer (Boston, Mass., USA), the radioactivity was measured by liquid scintillation in a Tri-Carb 2500 TR counter (Packard, Zurich, Switzerland). For 96-Unifilter plates the radioactivity was measured after addition of Microscint 40 scintillation fluid (Perkin Elmer, Boston Mass.) using a TopCount NXT (Packard)
The inhibition curves were fitted with a four parameter logistic equation giving IC50 values, and Hill coefficients.

T1 sequence (P31421 19-872): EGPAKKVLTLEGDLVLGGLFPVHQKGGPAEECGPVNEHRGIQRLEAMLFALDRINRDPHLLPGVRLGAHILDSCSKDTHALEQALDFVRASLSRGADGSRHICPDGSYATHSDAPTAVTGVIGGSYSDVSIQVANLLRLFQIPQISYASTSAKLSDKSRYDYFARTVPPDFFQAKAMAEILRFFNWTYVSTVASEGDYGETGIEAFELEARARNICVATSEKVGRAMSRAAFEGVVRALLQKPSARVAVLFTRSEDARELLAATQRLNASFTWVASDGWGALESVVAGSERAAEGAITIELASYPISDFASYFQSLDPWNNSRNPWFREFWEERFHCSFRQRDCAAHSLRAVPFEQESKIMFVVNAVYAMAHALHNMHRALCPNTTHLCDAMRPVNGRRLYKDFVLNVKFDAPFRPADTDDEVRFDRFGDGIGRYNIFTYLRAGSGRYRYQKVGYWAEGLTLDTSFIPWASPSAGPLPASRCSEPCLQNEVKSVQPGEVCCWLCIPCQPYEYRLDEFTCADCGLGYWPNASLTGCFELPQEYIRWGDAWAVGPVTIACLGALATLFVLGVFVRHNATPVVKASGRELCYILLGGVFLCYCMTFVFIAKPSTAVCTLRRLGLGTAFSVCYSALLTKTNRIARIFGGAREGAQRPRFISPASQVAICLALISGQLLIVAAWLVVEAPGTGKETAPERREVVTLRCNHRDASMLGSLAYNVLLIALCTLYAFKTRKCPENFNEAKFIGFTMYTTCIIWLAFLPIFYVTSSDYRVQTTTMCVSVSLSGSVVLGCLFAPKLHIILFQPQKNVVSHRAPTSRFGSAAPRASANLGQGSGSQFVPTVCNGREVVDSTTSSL

Row | Structure (SMILES) | melting point [°C] | Ki [1] [nM]
1 | Nc1ccc(-c2cn(-c3nc(-c4ccc(C(F)(F)F)nc4)cc(C(F)(F)F)n3)cn2)cn1 [Example 13, 5-{1-[4-Trifluoromethyl-6-(6-trifluoromethyl-pyridin-3-yl)-pyrimidin-2-yl]-1H-imidazol-4-yl}-pyridin-2-ylamine] | 259 | 33
2 | Cc1cc(-c2ccc(C(F)(F)F)cn2)nc(-c2cccc(-c3cccc(S(N)(=O)=O)c3)n2)n1 [Example 27, 3-{6-[4-Methyl-6-(5-trifluoromethyl-pyridin-2-yl)-pyrimidin-2-yl]-pyridin-2-yl}-benzenesulfonamide] | 246 to 252 | –
3 | Cc1cc(-c2ccc(C(F)(F)F)nc2)nc(-c2ccnc(-c3ccc(S(N)(=O)=O)s3)c2)n1 [Example 22, 5-{4-[4-Methyl-6-(6-trifluoromethyl-pyridin-3-yl)-pyrimidin-2-yl]-pyridin-2-yl}-thiophene-2-sulfonic acid amide] | 289 | –
4 | Cc1cc(-c2ccc(C(F)(F)F)nc2)nc(-c2cccc(-c3cccc(S(N)(=O)=O)c3)n2)n1 [Example 28, 3-{6-[4-Methyl-6-(6-trifluoromethyl-pyridin-3-yl)-pyrimidin-2-yl]-pyridin-2-yl}-benzenesulfonamide] | 254 | –
5 | Cc1cc(-c2ccc(C(F)(F)F)nc2)cc(-c2cccc(-c3cccc(S(N)(=O)=O)c3)n2)n1 [Example 30, 3-(6′-Methyl-6″-trifluoromethyl-[2,2′;4′,3″]terpyridin-6-yl)-benzenesulfonamide] | 233 to 234 | 2
6 | Cc1cc(-c2ccc(C(F)(F)F)nc2)nc(-c2cccc(-c3cccc(S(N)(=O)=O)c3)c2)n1 [Example 23, 3′-[4-Methyl-6-(6-trifluoromethyl-pyridin-3-yl)-pyrimidin-2-yl]-biphenyl-3-sulfonic acid amide] | 220 | –
7 | NS(=O)(=O)c1cccc(-c2cccc(-c3nc(-c4ccc(C(F)(F)F)nc4)cc(C(F)(F)F)n3)c2)c1 [Example 2, 3′-[4-Trifluoromethyl-6-(6-trifluoromethyl-pyridin-3-yl)-pyrimidin-2-yl]-biphenyl-3-sulfonic acid amide] | 211 | 1.8
8 | NS(=O)(=O)c1cccc(-c2cccc(-c3nc(-c4ccc(C(F)(F)F)nc4)cc(C(F)F)n3)c2)c1 [Example 15, 3′-[4-Difluoromethyl-6-(6-trifluoromethyl-pyridin-3-yl)-pyrimidin-2-yl]-biphenyl-3-sulfonic acid amide] | 222 | –
9 | NS(=O)(=O)c1cccc(-c2cn(-c3nc(-c4ccc(C(F)(F)F)nc4)cc(C(F)F)n3)cn2)c1 [Example 19, 3-{1-[4-Difluoromethyl-6-(6-trifluoromethyl-pyridin-3-yl)-pyrimidin-2-yl]-1H-imidazol-4-yl}-benzenesulfonamide] | 219.5 | 15
10 | Nc1ccc(-c2cccc(-c3nc(-c4ccc(Cl)s4)cc(C(F)(F)F)n3)c2)cn1 [Example 5, 5-{3-[4-(5-Chloro-thiophen-2-yl)-6-trifluoromethyl-pyrimidin-2-yl]-phenyl}-pyridin-2-ylamine] | 99 | 139
11 | NS(=O)(=O)c1ccc(-c2cc(-c3nc(-c4ccc(C(F)(F)F)nc4)cc(C(F)F)n3)ccn2)s1 [Example 17, 5-{4-[4-Difluoromethyl-6-(6-trifluoromethyl-pyridin-3-yl)-pyrimidin-2-yl]-pyridin-2-yl}-thiophene-2-sulfonic acid amide] | 269.5 | 3.5
12 | Nc1ncc(-c2cccc(-c3nc(-c4ccc(Cl)s4)cc(C(F)(F)F)n3)c2)cn1 [Example 6, 5-{3-[4-(5-Chloro-thiophen-2-yl)-6-trifluoromethyl-pyrimidin-2-yl]-phenyl}-pyrimidin-2-ylamine] | 228 | –
13 | NS(=O)(=O)c1cccc(-c2cc(-c3nc(-c4ccc(C(F)(F)F)nc4)cc(C(F)(F)F)n3)ccn2)c1 [Example 9, 3-{4-[4-Trifluoromethyl-6-(6-trifluoromethyl-pyridin-3-yl)-pyrimidin-2-yl]-pyridin-2-yl}-benzenesulfonamide] | 258 | 5.3
14 | NS(=O)(=O)c1ccc(-c2cccc(-c3nc(-c4ccc(C(F)(F)F)nc4)cc(C(F)(F)F)n3)c2)s1 [Example 3, 5-{3-[4-Trifluoromethyl-6-(6-trifluoromethyl-pyridin-3-yl)-pyrimidin-2-yl]-phenyl}-thiophene-2-sulfonic acid amide] | 250.5 | 12
15 | Cc1cc(-c2ccc(C(F)(F)F)nc2)nc(-n2cnc(-c3ccc(N)nc3)c2)n1 [Example 20, 5-{1-[4-Methyl-6-(6-trifluoromethyl-pyridin-3-yl)-pyrimidin-2-yl]-1H-imidazol-4-yl}-pyridin-2-ylamine] | 220 | 62
16 | CCC(=O)NS(=O)(=O)c1cccc(-c2cc(-c3nc(-c4ccc(C(F)(F)F)nc4)cc(C(F)(F)F)n3)ccn2)c1 [Example 11, N-Propionyl-3-{4-[4-trifluoromethyl-6-(6-trifluoromethyl-pyridin-3-yl)-pyrimidin-2-yl]-pyridin-2-yl}-benzenesulfonamide] | 242 | –
17 | NS(=O)(=O)c1cccc(-c2cc(-c3nc(-c4ccc(C(F)(F)F)nc4)cc(C(F)F)n3)ccn2)c1 [Example 16, 3-{4-[4-Difluoromethyl-6-(6-trifluoromethyl-pyridin-3-yl)-pyrimidin-2-yl]-pyridin-2-yl}-benzenesulfonamide] | 264.5 | –
18 | Cc1cc(-c2ccc(C(F)(F)F)nc2)cc(-c2cccc(-c3cccc(S(N)(=O)=O)c3)c2)n1 [Example 34, 3′-(6′-Methyl-6-trifluoromethyl-[3,4′]bipyridinyl-2′-yl)-biphenyl-3-sulfonic acid amide] | 227 to 232 | –
19 | NS(=O)(=O)c1ccc(-c2cccc(-c3nc(-c4ccc(C(F)(F)F)nc4)cc(C(F)F)n3)c2)s1 [Example 18, 5-{3-[4-Difluoromethyl-6-(6-trifluoromethyl-pyridin-3-yl)-pyrimidin-2-yl]-phenyl}-thiophene-2-sulfonic acid amide] | 245.5 | –
20 | Nc1ccc(-c2cn(-c3nc(-c4ccc(C(F)(F)F)nc4)cc(C(F)F)n3)cn2)cn1 [Example 14, 5-{1-[4-Difluoromethyl-6-(6-trifluoromethyl-pyridin-3-yl)-pyrimidin-2-yl]-1H-imidazol-4-yl}-pyridin-2-ylamine] | 258 | –
21 | Cc1cc(-c2ccc(C(F)(F)F)nc2)nc(-c2ccnc(-c3cccc(S(N)(=O)=O)c3)c2)n1 [Example 21, 3-{4-[4-Methyl-6-(6-trifluoromethyl-pyridin-3-yl)-pyrimidin-2-yl]-pyridin-2-yl}-benzenesulfonamide] | 255 | –
22 | Cc1cc(-c2ccc(C(F)(F)F)cn2)nc(-c2cccc(-c3cccc(S(=O)(=O)NC(C)(C)C)c3)n2)n1 [Example 25] | – | 105
23 | Cc1cc(-c2ccc(C(F)(F)F)nc2)cc(-c2cccc(-c3ccc(S(N)(=O)=O)s3)c2)n1 [Example 35, 5-[3-(6′-Methyl-6-trifluoromethyl-[3,4′]bipyridinyl-2′-yl)-phenyl]-thiophene-2-sulfonic acid amide] | 231 to 233 | –
24 | Cc1cc(-c2ccc(C(F)(F)F)nc2)nc(-c2cccc(-c3ccc(S(N)(=O)=O)s3)c2)n1 [Example 24, 5-{3-[4-Methyl-6-(6-trifluoromethyl-pyridin-3-yl)-pyrimidin-2-yl]-phenyl}-thiophene-2-sulfonic acid amide] | 237.5 | –
25 | NS(=O)(=O)c1ccc(-c2cccc(-c3nc(-c4ccc(Cl)s4)cc(C(F)(F)F)n3)c2)s1 [Example 7, 5-{3-[4-(5-Chloro-thiophen-2-yl)-6-trifluoromethyl-pyrimidin-2-yl]-phenyl}-thiophene-2-sulfonic acid amide] | 233 | –
